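Interpolation was linear, between the two tested concentrations surrounding the appropriate level; five concentrations were tested over 48 hours in 96-well plates. The concentration for full growth arrest is given as TGI.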
How the values were obtained:
Experiment in all cases: NCI anticancer screen, dose series, 48 h
PC-3 prostate = test system: PC-3 prostate
RPMI-8226 leukemia = test system: RPMI-8226 leukemia
ACHN renal = test system: ACHN renal
MDA-MB-435 = test system: MDA-MB-435
HOP-92 NSCLC = test system: HOP-92 NSCLC
BT-549 breast = test system: BT-549 breast
OVCAR-3 ovarian = test system: OVCAR-3 ovarian
CAKI-1 renal = test system: CAKI-1 renal
786-0 renal = test system: 786-0 renal
OVCAR-4 ovarian = test system: OVCAR-4 ovarian
NCI/ADR-RES ovarian = test system: NCI/ADR-RES ovarian

| Structure (SMILES) | TGI (PC-3 prostate) [µM] | TGI (RPMI-8226 leukemia) [µM] | TGI (ACHN renal) [µM] | TGI (MDA-MB-435) [µM] | TGI (HOP-92 NSCLC) [µM] | TGI (BT-549 breast) [µM] | TGI (OVCAR-3 ovarian) [µM] | TGI (CAKI-1 renal) [µM] | TGI (786-0 renal) [µM] | TGI (OVCAR-4 ovarian) [µM] | TGI (NCI/ADR-RES ovarian) [µM] |
| --- | --- | --- | --- | --- | --- | --- | --- | --- | --- | --- | --- |
| COc1cn2c(cc1=O)COc1ccc(-c3ccccc3)cc1-2 | > 100 | > 100 | > 100 | > 100 | > 100 | > 82.9 | 98.8 | > 100 | > 100 | > 100 | > 100 |
| c1ccc2c(c1)CC1c3[nH]c4ccccc4c3CCN21 (centres undefined) | > 10 | > 10 | > 10 | > 10 | > 10 | > 10 | > 10 | > 10 | > 10 | > 10 | > 10 |
| O=C1CCSSCCC(=O)Nc2ccccc2N1 | > 100 | > 100 | > 100 | > 100 | > 100 | > 100 | > 100 | > 100 | > 100 | > 100 | > 100 |
| CCCCC[C@H](O)[C@H](C)C=C1SCCCS1 | > 100 | > 100 | > 100 | > 100 | > 100 | > 100 | > 100 | > 100 | > 100 | > 100 | > 100 |
| N#Cc1c(N)c(-c2ccc(Cl)cc2)c(F)c2ccccc12 | > 100 | > 100 | > 100 | > 100 | 59.4 | > 100 | > 100 | > 100 | > 100 | > 100 | > 100 |
| CC1(C)OC[C@@H](/C=C\CCO[Si](c2ccccc2)(c2ccccc2)C(C)(C)C)N1C(=O)c1ccccc1 | > 100 | 23.2 | > 100 | > 100 | 52.7 | > 100 | 30.5 | > 100 | 28 | > 100 | > 100 |
| O=C(Cn1c2ccc(Br)cc2c2nc3ccccc3nc21)NC1CCCCC1 | > 100 | > 100 | > 100 | > 100 | > 100 | > 100 | > 100 | > 100 | > 100 | > 100 | > 100 |
| O=C(Cc1nc2ccc(C(=O)c3ccccc3)cc2[nH]c1=O)C(=O)Nc1ccccc1[N+](=O)[O-] | > 100 | > 100 | > 100 | > 100 | > 100 | > 100 | > 100 | > 100 | > 100 | > 100 | > 100 |
| O=C1/C(=C/c2cccc(Oc3ccccc3)c2)N=C(c2ccccc2)N1c1nc2ccc(Sc3ccccc3)cc2[nH]1 | > 100 | 56.5 | > 100 | 33.1 | > 100 | 55 | 47.7 | > 100 | > 100 | > 100 | 50.4 |
| Cc1ccc(Nc2nc(=O)[nH]c(=O)[nH]2)cc1N | > 100 | > 100 | > 100 | > 100 | > 100 | > 100 | > 100 | > 100 | > 100 | > 100 | > 100 |
| N#Cc1c(=O)c2cccnc2n2c1[nH]c1ccccc12 | > 100 | > 100 | > 100 | > 100 | 68.4 | > 100 | > 100 | > 100 | > 100 | > 100 | > 100 |
| O=C1c2ccccc2S(=O)(=O)c2ccccc21 | > 100 | > 100 | > 100 | > 100 | > 100 | > 100 | > 100 | > 100 | > 100 | > 100 | > 100 |
| [N-]=[N+]=NC1(c2ccccc2)C(=O)Nc2ccccc2C1=O (centres undefined) | > 100 | > 100 | > 100 | 44.1 | 84.5 | 34.8 | > 100 | > 100 | > 100 | > 100 | > 100 |
| Oc1ccc(-c2c3c(nc4c2CCc2ccc(Br)cc2-4)-c2cc(Br)ccc2CC3)cc1 | 31.9 | 77.3 | 45.2 | 45 | 31.1 | 43.1 | 29.5 | 33 | 37.4 | 48 | 46 |
| O=c1c(Cc2ccc(Cl)cc2)nnc2sc(-c3ccc([N+](=O)[O-])cc3)nn12 | 47.2 | 89.9 | 87.3 | 58.5 | > 100 | 55.6 |  | > 100 | > 100 | > 100 | > 100 |
| CC1=NN(c2nc(N)nc(/C(C#N)=C/c3ccncc3)n2)C(C)(C)C1 | > 100 | > 100 | > 100 | > 100 | > 100 | > 100 |  | > 100 | > 100 | > 100 | > 100 |

From PubChem BioAssay (NCI)
